Tests used:
[1] = molecular target: cellular LPS receptors; parameters: method as in PMID 24281661; settings: read-out: IC50 inhibition of binding of bacterial LPS to cellular receptors; cited from earlier work
[2] = Bacterial membrane permeabilization assay (carboxyfluorescein leakage from liposomes); type: biochemical; settings: large unilamellar liposomes from E. coli phospholipid extract, 45 min, 37 °C

Question: For polymyxin B, which IC50 [1] is on record?
Answer: 3.6 nM

Question: And the EC50 [2]?
Answer: 1000 nM

Question: What about the EC50 ([2]; listed as Polymyxin B) of the same substance?
Answer: ~1000 nM

Reference: article PMC7684578, “Isopedopeptins A–H: Cationic Cyclic Lipodepsipeptides from Pedobacter cryoconitis UP508 Targeting WHO Top-Priority Carbapenem-Resistant Bacteria” (ACS Chemical Biology, 2020)
